# Measurements taken from patent publication US8058437B2, “(Pyrroloquinoxalinyl) pyrazinecarbohydrazide-oxalic acid co-crystal for treatment of cancer and other diseases” (Novelix Pharmaceuticals, Inc., priority 2008, dated 2011).
# Legend:
# [1] = tested on: TC71luc Ewing tumor cell line; assay: Ewing's sarcoma cell viability by luminescence, TC71luc; assay type: cell-based, human; conditions: 72 hours
# Experimental: (§1) Treatment of Ewing's sarcoma with NVX-412. The TC71luc and TC32luc Ewing tumor cell lines stably express the luciferase gene. Cells were seeded into 96-well plates 24 hours before treating with the active compound to allow attachment. Cells were treated with NVX-412 for 72 hours. Serial dilutions of NVX-412 were prepared in medium from a 10 μM stock solution in DMSO. […] After 72 hours, cell viability was measured by luminescence using a Saphire2 plate reader.
# [2] = tested on: TC32luc Ewing tumor cell line; assay: Ewing's sarcoma cell viability by luminescence, TC32luc; assay type: cell-based, human; conditions: 72 hours
# Experimental: as §1
# [3] = tested on: human cancer cell lines (NCI60); assay: Treatment of human cancer cell lines with NVX-412 (NCI screening procedure, SRB staining); assay type: cell-based
# Experimental: Treatment of various cancer cell lines with NVX-412. Over 60 human cancer cell lines were treated with NVX-412 according to procedures detailed by the National Cancer Institute Developmental Therapeutics Program (see dtp.nci.nih.gov/branches/btb/ivclsp.html) and Shoemaker R H (Nat. Rev. Cancer, 6, 813-823, (2006)) and references cited therein. Many of the cell lines tested are available from the American Type Culture Collection (Rockville, Md., USA). The melanoma cell line 518A2 has been described previously (Jansen et al., “Activated N-Ras Contributes to the Chemoresistance of Human Melanoma in Severe Combined Immunodeficiency (SCID) Mice by Blocking Apoptosis,” Cancer Research 57, 362-65 (1997)). A typical screening of cancer cell treatment by NVX-412 employed the following procedure.
# The human tumor cell lines of the cancer screening panel were grown in RPMI 1640 medium containing 5% fetal bovine serum and 2 mM L-glutamine. For a typical screening experiment, cells were inoculated into 96 well microtiter plates in 100 μL at plating densities ranging from 5,000 to 40,000 cells/well depending on the doubling time of individual cell lines. After cell inoculation, the microtiter plates were incubated at 37° C. in 5% CO2/95% air at 100% relative humidity for 24 hours prior to the addition of NVX-412. […]
# Following the addition of NVX-412, the plates were incubated for an additional 48 hours at 37° C. in 5% CO2/95% air at 100% relative humidity. […] Bound stain was subsequently solubilized with 10 mM trizma base, and the absorbance was read on an automated plate reader at a wavelength of 515 nm. […] Using the seven absorbance measurements [time zero (Tz), control growth (C), and test growth in the presence of NVX-412 at the five concentration levels (Ti)], the percentage growth was calculated at each of the NVX-412 concentration levels. Percentage growth inhibition was calculated as: [(Ti−Tz)/(C−Tz)]*100 for concentrations for which Ti≧Tz [(Ti−Tz)/Tz]*100 for concentrations for which Ti<Tz.
# Three dose response parameters were calculated. […]
smiles,measurement,setting,value
"O=C(NNc1nc2cc(F)ccc2n2cccc12)c1cnccn1.O=C(O)C(=O)O [NVX-412, N′-(7-fluoropyrrolo[1,2a]quinoxalin-4-yl)pyrazine-2-carbohydrazide oxalic acid co-crystal]","fraction of cells remaining after three days, mean","[1]; TC71, NVX-412 5 nM",1.00
same,"fraction of cells remaining after three days, mean","[1]; TC71, NVX-412 10 nM",0.97
same,"fraction of cells remaining after three days, mean","[1]; TC71, NVX-412 25 nM",0.95
same,"fraction of cells remaining after three days, mean","[1]; TC71, NVX-412 50 nM",0.92
same,"fraction of cells remaining after three days, mean","[1]; TC71, NVX-412 75 nM",0.76
same,"fraction of cells remaining after three days, mean","[1]; TC71, NVX-412 100 nM",0.50
same,"fraction of cells remaining after three days, mean","[1]; TC71, NVX-412 150 nM",0.21
same,"fraction of cells remaining after three days, mean","[1]; TC71, NVX-412 200 nM",0.08
same,"fraction of cells remaining after three days, mean","[1]; TC71, NVX-412 375 nM",0.01
same,"fraction of cells remaining after three days, mean","[2]; TC32, NVX-412 5 nM",1.03
same,"fraction of cells remaining after three days, mean","[2]; TC32, NVX-412 10 nM",0.96
same,"fraction of cells remaining after three days, mean","[2]; TC32, NVX-412 25 nM",0.95
same,"fraction of cells remaining after three days, mean","[2]; TC32, NVX-412 50 nM",0.91
same,"fraction of cells remaining after three days, mean","[2]; TC32, NVX-412 75 nM",0.69
same,"fraction of cells remaining after three days, mean","[2]; TC32, NVX-412 100 nM",0.44
same,"fraction of cells remaining after three days, mean","[2]; TC32, NVX-412 150 nM",0.15
same,"fraction of cells remaining after three days, mean","[2]; TC32, NVX-412 200 nM",0.06
same,"fraction of cells remaining after three days, mean","[2]; TC32, NVX-412 375 nM",0.01
same,GI50,"[3]; almost all cell lines tested, 48 hours incubation",nanomolar range
same,inhibition of tumor cell growth,"[3]; cancer cell lines tested, summary",pronounced inhibition of tumor cell growth
same,effectiveness against cancer cell lines,"[3]; sarcoma, melanoma, and CNS cancer cell lines, summary",very effective
